This note sets out measurements from US20250276999A1, “PEPTIDES FOR PROMOTING HAIR FOLLICLE NEOGENESIS, AND PREVENTION/MITIGATION OF UNTOWARD EFFECTS OF RADIATION TREATMENT” (Trustees of Tufts College, priority 2022, published 2025).

“Also recorded” adds a separate entry of the source.

In this test the test system is X-ray irradiated mice. Kind of test: Radiation dermatitis murine model (thoracic X-ray irradiation). The format is in vivo, C57BL/6 mice.
Where [1] appears, read: 16.5 Gy, s.c. days 2, 7, 10 post-irradiation, TSN6 5 μg/day, HGF 3.3 μg/day, vs vehicle.
Setting [2] is: skin 83 days post-irradiation, radiation alone.

Protocol: Sham irradiated mice without wounds were used as controls for radiation dermatitis, and treated identically as irradiated mice. Wounded mice, without radiation, were used as controls for combined injury.
Animals were irradiated in the RS2000 small animal irradiator. The RS2000 provides a cone-shaped radiation field with irradiation at 12.39-40.50 cm from the X-ray source. For dose measurements, irradiation was performed with the following settings: 160 kVp, 25 mA, 90 s irradiation time and 0.3 mm Cu beam filtration. The approximate HVL provided by the manufacturer was 0.62 mm Cu. […] A custom lead shield was placed on the floor of the irradiator, with the mouse thoracic region ˜43.75 cm from the X-ray source. Dose measurements were conducted twice to account for set-up error and reproducibility. […] The dose rate was reported for each aperture position 1-4 as an absorbed dose rate to water (ADRW, Gy/min) and the two repeated measurements were averaged.
Mice (12-14 weeks of age) were anesthetized using inhaled anesthesia (isoflurane), and the fur was clipped on the dorsal side of the thoracic region. […] Animals were then anesthetized with injected anesthesia (150 mg/kg ketamine/18 mg/kg xylazine) and placed in Lucite jigs for exposure to 16.5 Gy thoracic irradiation in the RS2000 X-ray irradiator as previously described [19].
TSN6 peptide (5 μg/day in 50 μl sterile saline) or hepatocyte growth factor (HGF; 3.3 μg/day in 50 μl sterile saline) or vehicle (sterile saline, 50 μl) were injected subcutaneously on days 2, 7 and 10 post-irradiation. Injections were made caudal, adjacent to the irradiated or irradiated/wounded area.
Animals were monitored daily for 85 days post-irradiation for both radiation dermatitis and combined injury models. Radiation dermatitis was separately scored for hair loss, erythema, scale, and ulceration. Scoring for erythema, scale and ulceration were previously described: 0=none; 1=minimal; 2=mild; 3=moderate; 4=marked [19]. Because all animals underwent fur clipping prior to irradiation and wounding, scoring for hair loss was determined as failure to regrow hair in the irradiated areas: 0=none; 1=minimal; 2=mild; 3=moderate; 4=marked. Animals were photographed for the measurement of wounds and for dermatitis scoring. […] Weight was measured as an indication of overall health.

Regarding “HSPDIQLQKGLTFEPIQIK [TSN6, 19 amino acid peptide derived from multimerin-1, Coiled coil domain]”, the “combined scores of radiation skin effects” value (16.5 Gy, TSN6 5 μg/day s.c. days 2, 7, 10 (FIG. 5E)) is on record as “marked reduction”. Moreover, under setting [1], the erythema score entry is recorded as “mitigated”, the hair loss score result is “mitigated”, the “radiation dermatitis (overall measures)” value is reported as “mitigated; also recorded: Mitigation of radiation dermatitis” and the scale score result was “mitigated”. Besides, under setting [2], the “adipose layer in H&E histological sections” value is on record as “preservation of the adipose layer”, the “epidermal thickening in H&E histological sections” value is recorded as “reduction of the epidermal thickening” and the “hair follicles within the irradiated area (histology)” value is “restoration of hair follicles”.
